Assay results: ChEMBL document CHEMBL1201862, “PubChem BioAssay data set” (2004)
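Dose response: 5 concentrations. Exposure: 48 h. Format: 96-well plates. Endpoint: linear interpolation; highest concentration if not reached. Abbreviation: GI50, concentration required for 50% inhibition of growth.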 Calls of active or inactive are those of the source. Rule as the data show it: active = GI50 up to about 1.1 µM and inactive = higher.

Legend:
Experiment in all cases: NCI anticancer screen, dose series, 48 h
NCI-H23 = system: NCI-H23
Malme-3M = system: Malme-3M
IGROV-1 = system: IGROV-1
HT-29 = system: HT-29
OVCAR-8 = system: OVCAR-8
K562 = system: K562
SK-MEL-28 = system: SK-MEL-28
SK-MEL-5 = system: SK-MEL-5
HOP-62 = system: HOP-62
A549 = system: A549
SW-620 = system: SW-620
HCT-116 = system: HCT-116
TK-10 = system: TK-10
ACHN = system: ACHN
SK-OV-3 = system: SK-OV-3
HOP-92 = system: HOP-92
UACC-62 = system: UACC-62
LOX IMVI = system: LOX IMVI
RPMI-8226 = system: RPMI-8226

Measured: GI50

N#C/C(=C\c1ccc(CP(=O)(O)O)cc1)C(N)=O
inactive: NCI-H23 > 100 µM | Malme-3M > 100 µM | IGROV-1 > 100 µM | HT-29 > 100 µM | OVCAR-8 > 100 µM | K562 > 100 µM | SK-MEL-28 > 100 µM | SK-MEL-5 > 100 µM | HOP-62 > 100 µM | A549 > 100 µM | SW-620 > 100 µM | HCT-116 > 100 µM | TK-10 > 100 µM | ACHN > 100 µM | SK-OV-3 > 100 µM | HOP-92 > 100 µM | UACC-62 > 100 µM | LOX IMVI > 100 µM | RPMI-8226 > 100 µM

O=C1c2ccccc2C(=O)N1CCCOCc1cnc(O)nc1O
inactive: NCI-H23 > 100 µM | Malme-3M > 100 µM | IGROV-1 > 100 µM | HT-29 > 100 µM | OVCAR-8 > 100 µM | K562 > 100 µM | SK-MEL-28 > 100 µM | SK-MEL-5 > 100 µM | HOP-62 > 100 µM | A549 > 100 µM | SW-620 > 100 µM | HCT-116 > 100 µM | TK-10 > 100 µM | ACHN > 100 µM | SK-OV-3 > 100 µM | HOP-92 > 100 µM | UACC-62 > 100 µM | LOX IMVI > 100 µM | RPMI-8226 > 100 µM

Cc1cccc(C)c1NC(=O)C(=O)C(C(=O)c1ccccc1-c1ccccc1)C1OC(=O)c2ccccc21 (stereo unspecified)
inactive: NCI-H23 14.3 µM | Malme-3M 12.5 µM | IGROV-1 25.6 µM | HT-29 37.1 µM | OVCAR-8 29.6 µM | K562 30.4 µM | SK-MEL-28 22.9 µM | SK-MEL-5 17.8 µM | HOP-62 16.9 µM | A549 25.6 µM | SW-620 26.4 µM | HCT-116 14.6 µM | TK-10 26.7 µM | ACHN 43.9 µM | SK-OV-3 27.6 µM | HOP-92 16.7 µM | UACC-62 17.4 µM | LOX IMVI 19 µM | RPMI-8226 15.8 µM

CCC(O)CCCCCCCCCCCCCCC(=O)O (stereo unspecified)
inactive: NCI-H23 > 100 µM | Malme-3M > 100 µM | IGROV-1 > 100 µM | HT-29 40.8 µM | OVCAR-8 > 100 µM | K562 > 100 µM | SK-MEL-28 > 100 µM | SK-MEL-5 18.8 µM | HOP-62 > 100 µM | A549 > 100 µM | SW-620 > 100 µM | HCT-116 > 100 µM | TK-10 > 100 µM | ACHN > 100 µM | SK-OV-3 > 100 µM | HOP-92 > 100 µM | UACC-62 > 100 µM | LOX IMVI > 10 µM | RPMI-8226 66.8 µM

CC(N)C(C)c1ccccc1 (stereo unspecified)
inactive: NCI-H23 > 100 µM | Malme-3M > 100 µM | IGROV-1 > 100 µM | HT-29 > 100 µM | OVCAR-8 > 100 µM | K562 > 100 µM | SK-MEL-28 > 100 µM | SK-MEL-5 > 100 µM | HOP-62 > 100 µM | A549 > 100 µM | SW-620 > 100 µM | HCT-116 > 100 µM | TK-10 > 100 µM | ACHN > 100 µM | SK-OV-3 > 100 µM | HOP-92 > 100 µM | UACC-62 > 100 µM | LOX IMVI > 100 µM | RPMI-8226 > 100 µM

Cc1cc(NS(=O)(=O)c2ccc(NC(=O)c3cccc4c(Nc5ccc(S(=O)(=O)Nc6cc(C)on6)cc5)c5ccc(Cl)cc5nc34)cc2)no1
inactive: NCI-H23 45.1 µM | Malme-3M > 100 µM | IGROV-1 59.4 µM | HT-29 > 100 µM | OVCAR-8 > 100 µM | K562 40.8 µM | SK-MEL-28 41 µM | SK-MEL-5 56.4 µM | HOP-62 61.5 µM | A549 61.1 µM | SW-620 76.7 µM | HCT-116 23.2 µM | TK-10 > 100 µM | ACHN 85.7 µM | SK-OV-3 > 100 µM | HOP-92 24.3 µM | UACC-62 35.2 µM | LOX IMVI 53.7 µM | RPMI-8226 47.1 µM

COC(=O)C(C(=O)OC)C1CCCC(=O)C1 (stereo unspecified)
inactive: NCI-H23 > 100 µM | Malme-3M > 100 µM | IGROV-1 > 100 µM | HT-29 > 100 µM | OVCAR-8 > 100 µM | K562 > 100 µM | SK-MEL-28 > 100 µM | SK-MEL-5 > 100 µM | HOP-62 > 100 µM | A549 > 100 µM | SW-620 > 100 µM | HCT-116 > 100 µM | TK-10 > 100 µM | ACHN > 100 µM | SK-OV-3 > 100 µM | HOP-92 > 100 µM | UACC-62 > 100 µM | LOX IMVI > 100 µM | RPMI-8226 > 100 µM

CC1(C)COC(c2ccc(C(=O)c3ccc(Cl)cc3)cc2)=N1
inactive: NCI-H23 6.95 µM | Malme-3M 42.5 µM | IGROV-1 > 100 µM | HT-29 > 100 µM | OVCAR-8 84.9 µM | K562 28.6 µM | SK-MEL-28 > 100 µM | SK-MEL-5 7.23 µM | HOP-62 > 100 µM | A549 83 µM | SW-620 > 100 µM | HCT-116 > 100 µM | ACHN > 100 µM | SK-OV-3 > 100 µM | HOP-92 85.1 µM | UACC-62 > 100 µM | LOX IMVI > 100 µM | RPMI-8226 > 100 µM
